Results on 1 substance are retold here after patent publication US9057082B2, “Generation of methane from hydrocarbon bearing materials” (Transworld Technologies Inc., priority 2004, dated 2015).

This experiment relates to anaerobic microbial consortium or consortia indigenous to the coal. In words: Hydrogen gas accumulated in headspace of amended Dietz coal slurries. The conditions noted are these: approximately 134 days of incubation. From the text: Core samples from the Tongue River area in the northwest portion of the Powder River Basin, Dietz coal seam, were utilized for these experiments. The core was collected in the field in a manner that prevented oxygen exposure by placing it into a steel canister that was purged with argon. Gas in the core used for the experiments described herein was extensively desorbed during long-term storage and previous use.
Coal samples were passed through a small jaw crusher twice resulting in pulverized coal (to yield a particle size similar to that of granulated sugar) that was measured into serum bottles (5 g per bottle); manipulations were carried out in an anaerobic environment. […]
Bromoethanesulfonic acid (BESA), a methanogen inhibitor, was added to selected incubations. […] Hydrogen production in the amended slurries relative to sterile coal slurries was measured to identify the degree of stimulation.
After approximately 134 days of incubation, all of the coal slurries were sampled for the aqueous phase (0.5 of 10 ml) and for gas analysis including hydrogen, methane, carbon dioxide, radioactive methane, and radioactive carbon dioxide. Methane and carbon dioxide were determined using a Hewlett Packard 5890 gas chromatograph equipped with a thermal conductivity detector. Radiolabeled methane and carbon dioxide were determined using a gas proportional counter (Innus Systems, Tampa, Fla.). […]

Bromoethanesulfonic acid [BESA]: the “hydrogen gas accumulation in the headspace, result in words” value is listed as “Hydrogen accumulated to the greatest extent”.
